Key:
KDR(VEGFR2) [1] = biological target: T1, KDR(VEGFR2) (Homo sapiens, UniProt P35968); assay: KDR kinase activity test, [γ-33P]-ATP filter membrane; type: biochemical; settings: 40 minutes at room temperature, read-out: Kinase-inhibiting activity IC50 KDR (VEGFR2)
Protocol: (§1) Test samples: compounds 1 to 4 in the present invention (the sequence numbers and structures thereof are shown in Table 1), dilution concentration: 0.03 μM-3 μM, a total of 10 concentration gradients.
(§2) Test method: enzymatic activity tests of Aurora kinase (including Aurora A and Aurora B) and VEGFR2 (KDR) were performed using a multi-function microplate reader.
(3) Test for KDR Kinase Activity:
(§3) KDR kinase protein and the compounds were sequentially added to the following reaction system: 8 mM MOPS pH 7.0, 0.2 mM EDTA, 0.33 mg/mL myelin basic protein, 10 mM magnesium acetate and [γ-^33P]-ATP (radioactive activity was approximately 500 cpm/pmol). Then the above reaction system was added with ATP to start the reaction, and incubated at room temperature for 40 minutes. Then the reaction was terminated by adding a 3% phosphoric acid solution. 10 μL was taken out from the reaction system, and then added dropwise to a P30 filtermat filter membrane, washed three times in a 75 mM phosphoric acid solution for 5 minutes, and then washed once with methanol. After the filter was dried, count was performed by a liquid crystal scintillation counter.

Aurora B [2] = biological target: T2, Aurora B (Homo sapiens, UniProt Q96GD4); assay: Aurora B kinase activity test, [γ-33P]-ATP filter membrane; type: biochemical; settings: 40 minutes at room temperature, read-out: Kinase-inhibiting activity IC50 Aurora B
T2 sequence (Q96GD4 whole entry): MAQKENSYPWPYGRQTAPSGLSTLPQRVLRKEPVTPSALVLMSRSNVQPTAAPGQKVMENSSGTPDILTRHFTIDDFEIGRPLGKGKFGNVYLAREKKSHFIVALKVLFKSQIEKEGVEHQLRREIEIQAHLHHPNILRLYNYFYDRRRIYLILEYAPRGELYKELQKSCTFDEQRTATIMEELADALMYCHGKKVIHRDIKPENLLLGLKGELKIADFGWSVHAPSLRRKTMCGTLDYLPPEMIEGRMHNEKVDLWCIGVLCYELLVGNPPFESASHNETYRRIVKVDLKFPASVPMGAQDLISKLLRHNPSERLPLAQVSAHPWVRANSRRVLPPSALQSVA
Protocol: as §1, §2
(2) Test for Aurora B Kinase Activity:
as §3, with “Aurora B kinase protein” for “KDR kinase protein”, “mM EDTA, 30 μM […], 10 mM” for “mM EDTA, 0.33 mg/mL myelin basic protein, 10 mM”, “times in 75 mM” for “times in a 75 mM”

Aurora A [3] = biological target: T3, Aurora A (Homo sapiens, UniProt O14965); assay: Aurora A kinase activity test, [γ-33P]-ATP filter membrane; type: biochemical; settings: 40 minutes at room temperature, read-out: Kinase-inhibiting activity IC50 Aurora A
T3 sequence (O14965 1-403): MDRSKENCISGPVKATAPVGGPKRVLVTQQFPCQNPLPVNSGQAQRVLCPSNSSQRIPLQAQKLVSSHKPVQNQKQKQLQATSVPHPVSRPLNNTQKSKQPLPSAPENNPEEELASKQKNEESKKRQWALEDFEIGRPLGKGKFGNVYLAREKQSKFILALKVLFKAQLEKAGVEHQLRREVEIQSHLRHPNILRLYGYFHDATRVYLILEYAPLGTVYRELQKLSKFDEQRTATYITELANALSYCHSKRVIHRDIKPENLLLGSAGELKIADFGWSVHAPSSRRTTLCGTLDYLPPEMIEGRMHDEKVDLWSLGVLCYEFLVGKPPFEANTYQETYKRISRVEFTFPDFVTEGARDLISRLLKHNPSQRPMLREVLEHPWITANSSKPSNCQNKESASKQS
Protocol: as §1, §2
(1) Test for Aurora a Kinase Activity:
as §3, with “Aurora A kinase protein” for “KDR kinase protein”, “mM EDTA, 200 μM LRRASLG (Kemptide), 10 mM” for “mM EDTA, 0.33 mg/mL myelin basic protein, 10 mM”, “times in 75 mM” for “times in a 75 mM”, “the filter membrane was dried,” for “the filter was dried,”

Aurora B [4] = biological target: T2, Aurora B; assay: Aurora B enzymatic activity test, FAM-labeled peptide, Caliper; type: biochemical; settings: FAM-labeled peptide substrate, read-out: Kinase-inhibiting activity IC50 Aurora B
Protocol: (§4) Test samples: Compounds in the present invention (the sequence numbers and structures thereof are shown in Table 1), dilution concentration: 0.03 μM-3 μM, a total of 10 concentration gradients.
as §2
(§5) a) 96-well plates, 10 dose groups, 3-fold serial dilutions, each well was added with DMSO, maximal concentration of 500 μM (50-fold compound).
(§6) b) 384-well plates, diluted with 1× kinase buffer (50 mM HEPES, pH 7.5; 0.0015% Brij-35; 2 mM DTT), each well containing 5× compound dissolved in 5 μL of 10% DMSO. Each well of the negative control contains 5 μL of 1× kinase buffer containing 10% DMSO.
(§7) Aurora A, Aurora B and KDR were dissolved in 1× kinase buffer and prepared as a 2.5× enzyme solution. After the compound in various concentrations was reacted with 2.5× enzyme solution at room temperature for 10 min, the FAM-labeled peptide substrate and ATP were added to initiate reaction. After incubation for 40 minutes, 25 μL of terminal solution (100 mM HEPES, pH 7.5; 0.015% Brij-35; 0.2% Coating Reagent #3; 50 mM EDTA) was added to stop the reaction, and the final data were read by Caliper.

[5] = test system: OVCAR-8 ovarian cancer cells; assay: Cell proliferation, Cell Titer-Glo; type: cell-based; settings: Homo sapiens, 72 hours, read-out: Cellular inhibitory activity IC50 OVCAR-8
Protocol: (§8) Test method: The effect of compounds on cell proliferation of different cell lines was examined by Cell Titer-Glo method.
(§9) Each cell line was inoculated into a 96-well plate one day in advance, and after overnight incubation, drugs in different concentrations were added to a final concentration of 0-10000 nM, 3-5 folds dilution, for a total of 10 concentration points. After incubation for 72 hours, the mixture was added with Cell titer-Glo reagent equilibrated at room temperature, and shaken to incubation for 10 min, and then allowed to stand at room temperature for 2 min to stabilize the light signal. The multi-function microplate reader was used to read data from each well and analyze it.

[6] = test system: OVCAR-3 ovarian cancer cells; assay: Cell proliferation, Cell Titer-Glo; type: cell-based; settings: Homo sapiens, 72 hours, read-out: Cellular inhibitory activity IC50 OVCAR-3
Protocol: as §8, §9

Hep3B liver cancer cells = assay: Cell proliferation, Cell Titer-Glo; type: cell-based; settings: Homo sapiens, 72 hours, read-out: Cellular inhibitory activity IC50 Hep3B
Protocol: as §8, §9

KG-1 Leukemic cells = assay: Cell proliferation, Cell Titer-Glo; type: cell-based; settings: 72 hours, read-out: Cellular inhibitory activity IC50 KG-1
Protocol: as §8, §9

[7] = test system: TOV-112D ovarian cancer cells; assay: Cell proliferation, Cell Titer-Glo; type: cell-based; settings: Homo sapiens, TOV112D, 72 hours, read-out: Cellular inhibitory activity IC50 TOV-112D
Protocol: as §8, §9

[8] = test system: A2780 ovarian cancer cells; assay: Cell proliferation, Cell Titer-Glo; type: cell-based; settings: Homo sapiens, 72 hours, read-out: Cellular inhibitory activity IC50 A2780
Protocol: as §8, §9

Kasumi-1 Leukemic cells = assay: Cell proliferation, Cell Titer-Glo; type: cell-based; settings: Homo sapiens, 72 hours, read-out: Cellular inhibitory activity IC50 Kasumi-1
Protocol: as §8, §9

[9] = test system: Caov-3 ovarian cancer cells; assay: Cell proliferation, Cell Titer-Glo; type: cell-based; settings: Homo sapiens, 72 hours, read-out: Cellular inhibitory activity IC50 Caov-3
Protocol: as §8, §9

KDR(VEGFR2) [10] = biological target: T1, KDR(VEGFR2); assay: KDR enzymatic activity test, FAM-labeled peptide, Caliper; type: biochemical; settings: FAM-labeled peptide substrate, read-out: Kinase-inhibiting activity IC50 KDR(VEGFR2)
Protocol: as §4, §2, §5, §6, §7

Aurora A [11] = biological target: T3, Aurora A; assay: Aurora A enzymatic activity test, FAM-labeled peptide, Caliper; type: biochemical; settings: FAM-labeled peptide substrate, read-out: Kinase-inhibiting activity IC50 Aurora A
Protocol: as §4, §2, §5, §6, §7

[12] = test system: HCC1954 breast cancer cells; assay: Cell proliferation, Cell Titer-Glo; type: cell-based; settings: Homo sapiens, 72 hours, read-out: Cellular inhibitory activity IC50 HCC1954
Protocol: as §8, §9

A549 Lung cancer cells = assay: Cell proliferation, Cell Titer-Glo; type: cell-based; settings: Homo sapiens, 72 hours, read-out: Cellular inhibitory activity IC50 A549
Protocol: as §8, §9

[13] = test system: D4475 breast cancer cells; assay: Cell proliferation, Cell Titer-Glo; type: cell-based; settings: 72 hours, read-out: Cellular inhibitory activity IC50 D4475
Protocol: as §8, §9

[14] = test system: BT-549 breast cancer cells; assay: Cell proliferation, Cell Titer-Glo; type: cell-based; settings: Homo sapiens, 72 hours, read-out: Cellular inhibitory activity IC50 BT-549
Protocol: as §8, §9

T1 sequence (P35968 20-1356): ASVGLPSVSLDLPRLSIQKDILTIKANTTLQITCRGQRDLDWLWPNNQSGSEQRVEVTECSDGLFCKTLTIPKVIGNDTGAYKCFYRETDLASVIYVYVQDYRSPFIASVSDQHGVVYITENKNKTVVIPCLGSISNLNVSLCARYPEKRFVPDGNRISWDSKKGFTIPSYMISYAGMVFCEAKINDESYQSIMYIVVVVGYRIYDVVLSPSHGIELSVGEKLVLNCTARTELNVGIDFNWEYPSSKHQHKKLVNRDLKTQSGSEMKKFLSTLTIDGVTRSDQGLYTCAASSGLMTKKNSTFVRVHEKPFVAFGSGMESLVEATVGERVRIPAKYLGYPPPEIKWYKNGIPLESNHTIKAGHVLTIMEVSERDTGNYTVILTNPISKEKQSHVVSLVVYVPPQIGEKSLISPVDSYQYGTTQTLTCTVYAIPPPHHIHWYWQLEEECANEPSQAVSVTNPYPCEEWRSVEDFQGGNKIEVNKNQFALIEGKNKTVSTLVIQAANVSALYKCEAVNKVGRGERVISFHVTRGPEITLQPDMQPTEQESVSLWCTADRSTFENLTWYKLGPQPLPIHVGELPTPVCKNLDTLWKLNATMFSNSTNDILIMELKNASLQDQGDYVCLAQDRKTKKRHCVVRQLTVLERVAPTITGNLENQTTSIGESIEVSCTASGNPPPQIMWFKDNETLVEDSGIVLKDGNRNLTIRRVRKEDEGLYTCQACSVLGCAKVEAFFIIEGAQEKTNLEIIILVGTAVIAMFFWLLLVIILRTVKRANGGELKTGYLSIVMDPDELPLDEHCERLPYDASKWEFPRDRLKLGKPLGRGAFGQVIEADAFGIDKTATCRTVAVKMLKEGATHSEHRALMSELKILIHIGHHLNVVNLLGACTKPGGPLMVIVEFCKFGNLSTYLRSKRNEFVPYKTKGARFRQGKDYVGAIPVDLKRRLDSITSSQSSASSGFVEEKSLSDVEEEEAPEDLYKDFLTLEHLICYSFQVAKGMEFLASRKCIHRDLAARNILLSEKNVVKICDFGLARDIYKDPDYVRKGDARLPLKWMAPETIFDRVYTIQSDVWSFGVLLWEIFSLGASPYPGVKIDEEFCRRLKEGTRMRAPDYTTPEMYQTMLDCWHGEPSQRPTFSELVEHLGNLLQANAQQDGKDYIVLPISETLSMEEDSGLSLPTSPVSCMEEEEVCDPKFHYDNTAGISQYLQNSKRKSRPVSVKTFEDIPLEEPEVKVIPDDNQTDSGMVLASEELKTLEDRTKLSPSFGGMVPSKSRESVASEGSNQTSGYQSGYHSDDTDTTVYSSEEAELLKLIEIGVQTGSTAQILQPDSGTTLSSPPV

SMILES	IC50 (KDR(VEGFR2) [1])	IC50 (Aurora B [2])	IC50 (Aurora A [3])	IC50 (Aurora B [4])	IC50 [5]	IC50 [6]	IC50 (Hep3B liver cancer cells)	IC50 (KG-1 Leukemic cells)	IC50 [7]	IC50 [8]	IC50 (Kasumi-1 Leukemic cells)	IC50 [9]	IC50 (KDR(VEGFR2) [10])	IC50 (Aurora A [11])	IC50 [12]	IC50 (A549 Lung cancer cells)	IC50 [13]	IC50 [14]
COc1cc2c(cn1)C(c1ccccc1Cl)=Nc1c(n[nH]c1C)N2 [Compound 3]	876 nM	8 nM	4 nM	–	–	–	–	–	–	–	–	–	–	–	–	–	–	–
Cc1[nH]nc2c1N=C(c1ccccc1Cl)c1cnc(OC3CCOC3)cc1N2 (centres unmarked) [Compound 4]	1520 nM	3 nM	4 nM	–	–	–	–	–	–	–	–	–	–	–	–	–	–	–
Cc1[nH]nc2c1N=C(c1ccccc1Cl)c1cnc(N3CCN(C)CC3)cc1N2 [Compound 22, 5-(2-chlorophenyl)-3-methyl-8-(4-methylpiperazin-1-yl)-2,10-dihydropyrazolo[4,3-b]pyrido[4,3-e][1,4]diazepine]	–	–	–	7.1 nM	433 nM	752 nM	67 nM	5 nM	650 nM	34 nM	19 nM	146 nM	0.91 nM	1.2 nM	–	–	–	–
Cc1[nH]nc2c1N=C(c1ccccc1Cl)c1cnc(N3CCOCC3)cc1N2 [Compound 29, 4-(5-(2-chlorophenyl)-3-methyl-2,10-dihydropyrazolo[4,3-b]pyrido[4,3-e][1,4]diazepin-8-yl)morpholine]	–	–	–	5 nM	305 nM	307 nM	50 nM	5 nM	955 nM	35 nM	48 nM	184 nM	1.2 nM	0.49 nM	396 nM	322 nM	113 nM	170 nM
